Test system: MIA PaCa-2 cells
Test: MTT assay, cancer cell growth inhibition (MIA PaCa-2)
Assay type: cell-based
Settings: Homo sapiens, MIA PaCa-2, 168 h, 7 days of treatment, read-out: MiaPaCa IC50
Description: Measurement of cancer cell growth inhibition of the compounds of invention Cytotoxicity of the compounds was assessed by MTT assay. In brief, MIA PaCa-2 cells or BxPc3 cells were seeded in 96-well microtitre plates at density of 200 cells/well. After overnight attachment, cells were treated with compounds at indicated concentration. After 7 days of treatment, MTT solution (3 mg/ml, 20 μl) was added to each well and cells were incubated for 3 h at 37° C. After incubation, media from each well was removed and the dark blue formazan crystals formed by live cells were dissolved in DMSO ([…] per well). The absorbance intensity was measured at 570 nm on a microplate reader (Molecular Devices, Sunnyvale, Calif., USA). The half maximal inhibitory concentration (IC50) value were calculated using 4 or 6 dots curve plotted with Cumulative Gaussian equation or Log(inhibitor) vs. response equation in GraphPad Prism.

## CCOC(=O)[C@@H]1CCCN(S(=O)(=O)c2ccc(S(=O)(=O)N(CC)CC)cc2)C1 [DX2-201, ethyl (R)-1-((4-(N,N-diethylsulfamoyl)phenyl)sulfonyl)piperidine-3-carboxylate]
  IC50: 370 ± 60 nM

— patent US20230212122A1, “MITOCHONDRIAL TARGETING COMPOUNDS FOR THE TREATMENT OF ASSOCIATED DISEASES” (The Regents of the University of Michigan, priority 2020, published 2023)
